Assay results reported in US12077607B2, “Functional and therapeutic effects of PAR4 cleavage by cathepsin G” (UNIVERSITY OF UTAH RESEARCH FOUNDATION, priority 2021, dated 2024).
“Also recorded” adds a separate entry of the source.

Legend:
[1] = test system: washed platelets; assay: Platelet aggregation of human washed platelets; type: cell-based; conditions: for platelet aggregation, species comparison: humans: 1 U/mL human thrombin, 1 μM human CatG or 1 mM RA-11mer
Experimental: (§1) Platelet isolation, aggregation, and activation. Human washed platelets were prepared and resuspended in Tyrode's Buffer at 2×10^8/mL as described (Edelstein et al., Nat Med. 2013; 19(12):1609-1616). For human and dog platelet comparisons, platelets were prepared using a modified human platelet protocol with final concentrations of […] (Cayman Chemical, Ann Arbor, MI, USA) used during centrifugation steps. Centrifugations after Tyrode's washes was decreased to 1,250×g as described in Cremer et al., PLOS One. 2019; 14(11): e0224891. Platelet aggregation was measured under stirring conditions at 37° C. using a PAP-8E aggregometer after treatment with the following agonists: arachidonic acid (Bio/Data Corporation, Horsham, PA, USA), cathepsin G, elastase, proteinase 3 (Athens Research Group), α-thrombin (Sigma, St. Louis, MO, USA), PAR-1 peptide (SFLLRN) (GL Biochem, China). P-selectin and PAC-1 were measured as previously described (Yee et al., J Thromb Haemost. 2006; 4(9):2043-2050; Tourdot et al., Arterioscler Thromb Vasc Biol. 2014; 34(12):2644-2650).
GYPGQV-NH2 (SEQ ID NO: 5), RALLLGWVPTR-NH2 (SEQ ID NO: 1), ALLLGWVPTR-NH2 (SEQ ID NO: 2), RALLLG-NH2 (SEQ ID NO: 4). Peptides were synthesized by BIOMATIK (Wilmington, DE, USA) at similar purities. All peptides were suspended in 50% DMSO and 50% ethanol. To measure platelet activation, washed platelets were stimulated with various concentrations of the peptide in the presence of CD41-APC, P-selectin (PE) and PAC-1 (FITC) for 15 minutes at 37° C. and then fixed with FACS Lysis Buffer. Samples were immediately run on a Cytoflex flow cytometer. In some experiments, platelets were stimulated with peptides and platelet aggregation performed as described above. Platelet calcium flux was induced by RALLLGWVPTR (2 mM; SEQ ID NO: 1), CatG (500 nM), ALLLGWVPTR (2 mM; SEQ ID NO: 2) or tyrodes buffer and monitored as described above.

[2] = test system: dog washed platelets; assay: Platelet aggregation of dog washed platelets; type: cell-based; conditions: 1 U/mL human thrombin, 1 μM human CatG or 1 mM RA-11mer
Excerpt: Animal studies. Mouse platelets were isolated as previously described from C57BL/6 mice (Denorme et al., Blood. 2020; 135(6):429-440). Dog platelets were isolated from whole blood drawn into ACD using a similar isolation procedure as for human platelets. All animal studies were approved by the University of Utah Institutional Animal Care and Use Committee (18-10012).
(§2) Platelet and neutrophil isolation. Platelets and neutrophils were isolated as previously described (Yost et al., J Clin Invest. 2016; 126(10):3783-3798). Platelet isolation from dogs, rats and mice was approved by the IACUC. Platelet activation and aggregation were performed as previously described (Manne et al., Blood. 2020; 136(11): 1317-1329).
as §1

[3] = test system: rat washed platelets; assay: Platelet aggregation of rat washed platelets; type: cell-based; conditions: 1 U/mL human thrombin, 1 μM human CatG or 1 mM RA-11mer
Experimental: as §2, §1

[4] = target: T1, PAR4-B (SEQ ID NO: 7) (Homo sapiens, UniProt Q96RI0); assay: PAR4 peptide cleavage analysis by LC-MS/MS, PAR4-B; type: biochemical; conditions: thrombin 100 U/mL or 100 nM, CatG 400 nM, 37° C.
T1 construct: purchased BIOMATIK (Wilmington, DE, USA); host or cells: chemical synthesis
Experimental: PAR-4 Peptide and Cleavage Analysis. PAR4 synthetic peptides were incubated with protease, snapped frozen, and sent for mass spectrometry analysis. PAR-4B ([…]; SEQ ID NO: 7) and PAR-4C ([…]; SEQ ID NO: 8) were synthesized by BIOMATIK (Wilmington, DE, USA). PAR4-B and PAR4-C were incubated with vehicle, thrombin (100 nM) or cathepsin G (400 nM) at 37° C. for 15 minutes to an hour depending on the experimental condition. After digestion with the indicated protease, reactions were snapped frozen and sent to the University of Arizona, Analytical and Biological Mass Spectrometry Core Facility (Tucson, Arizona) for analysis. LC-MS/MS analysis was done on a Q Exactive Plus mass spectrometer (Thermo Fisher Scientific, San Jose, CA) equipped with an EASY-Spray nanoESI source. Peptides (500 ng) were injected onto an Acclaim Pepmap 100 trap column (75 micron ID x 2 cm, Thermo Scientific), washed for 10 min at 3% mobile phase B (acetonitrile, 0.1% formic acid, mobile phase A consisting of water and 0.1% formic acid) then eluted onto an Acclaim PepMap RSLC analytical column (75 micron ID x 25 cm, Thermo Scientific using a 3-20% gradient of B over 40 min, 20-50% solvent B over 5 min, 50-95% of solvent B over 5 min, then a hold of solvent 95% B for 10 min, and finally a return to 3% solvent B for 1 min, then a hold at 3% B for 10 min. Flow rates were 300 nL/min using a Dionex Ultimate 3000 RSLCnano System (Thermo Scientific). […] The peptide identification results were further analyzed with Scaffold Q+S v 4.8.7 (Proteome Software Inc., Portland OR), a program that relies on various search engine results (i.e.: Sequest, X!Tandem, MASCOT) and which uses Bayesian statistics to reliably identify more spectra9.

[5] = target: T2, PAR4-C (SEQ ID NO: 8) (Homo sapiens, UniProt Q96RI0); assay: PAR4 peptide cleavage analysis by LC-MS/MS, PAR4-C; type: biochemical; conditions: CatG 400 nM, 37° C., 15 minutes; thrombin
T2 construct: purchased BIOMATIK (Wilmington, DE, USA); host or cells: chemical synthesis
Experimental: PAR-4 Peptide and Cleavage Analysis. PAR4 synthetic peptides were incubated with protease, snapped frozen, and sent for mass spectrometry analysis. PAR-4B ([…]; SEQ ID NO: 7) and PAR-4C ([…]; SEQ ID NO: 8) were synthesized by BIOMATIK (Wilmington, DE, USA). PAR4-B and PAR4-C were incubated with vehicle, thrombin (100 nM) or cathepsin G (400 nM) at 37° C. for 15 minutes to an hour depending on the experimental condition. After digestion with the indicated protease, reactions were snapped frozen and sent to the University of Arizona, Analytical and Biological Mass Spectrometry Core Facility (Tucson, Arizona) for analysis. LC-MS/MS analysis was done on a Q Exactive Plus mass spectrometer (Thermo Fisher Scientific, San Jose, CA) equipped with an EASY-Spray nanoESI source. […] The peptide identification results were further analyzed with Scaffold Q+S v 4.8.7 (Proteome Software Inc., Portland OR), a program that relies on various search engine results (i.e.: Sequest, X!Tandem, MASCOT) and which uses Bayesian statistics to reliably identify more spectra9.

T1 sequence (Q96RI0 36-58 limits assumed): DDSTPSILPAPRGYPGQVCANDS
T2 sequence (Q96RI0 57-78 limits assumed): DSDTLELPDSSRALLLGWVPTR

| cleavage of PAR4-B peptide ([4]; listed as Thrombin) | Substance | platelet aggregation, species comparison: humans [1] | platelet aggregation, species comparison: dogs [2] | platelet aggregation, species comparison: rats [3] | cleavage of PAR4-B peptide [4] | cleavage of PAR4-C peptide [5] | potency as activator of PAR4, comparison ([1]; from platelet aggregation data) | platelet aggregation induced by neutrophil serine protease ([1]; washed platelets, 400 nM protease) |
| --- | --- | --- | --- | --- | --- | --- | --- | --- |
| proteolyzed virtually all | thrombin | induced platelet aggregation | induced platelet aggregation | induced platelet aggregation | cleaved by thrombin between amino acids Arg47 and Gly48 | failed to cleave |  |  |
|  | CatG: serine protease cathepsin G released by activated neutrophils | induced platelet aggregation | induced platelet aggregation; also recorded: not as responsive | only induced platelet aggregation in humans and dogs | largely intact; also recorded: little cleavage | cleavage between Ser67 (S67)-Arg68 (R68) | much less potent than the thrombin enzyme | only protease to induce platelet aggregation |
